From PMC10197133, “Synthesis, Computational Insights, and Evaluation of Novel Sigma Receptors Ligands” (ACS Chemical Neuroscience, 2023)
Entries after “also recorded” stand apart in the source; their conditions may differ.

How the values were obtained:
S1R [1] = target: T1, S1R (Rattus norvegicus, UniProt Q9R0C9); assay: S1R radioligand binding assay, [3H](+)-pentazocine, liver homogenates; set-up: from tissue; host or cells: rat liver homogenate (male Sprague-Dawley); species or system male Sprague-Dawley rats
T1 sequence (Q9R0C9 whole entry): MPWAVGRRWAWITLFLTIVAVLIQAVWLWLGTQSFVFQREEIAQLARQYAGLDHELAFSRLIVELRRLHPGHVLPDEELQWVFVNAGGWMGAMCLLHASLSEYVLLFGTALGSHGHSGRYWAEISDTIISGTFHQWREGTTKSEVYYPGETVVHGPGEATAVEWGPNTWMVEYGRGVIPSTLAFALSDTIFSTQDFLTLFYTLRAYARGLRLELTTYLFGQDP
Method: (§1) The Ki-values were calculated with the program GraphPad Prism 7.0 (GraphPad Software, San Diego, California). The Ki-values are given as mean value ± SD from at least two independent experiments performed in duplicate.

S2R = target: T2, S2R (Rattus norvegicus, UniProt Q5U3Y7); assay: S2R radioligand binding assay, [3H]DTG with (+)-pentazocine as S1R masking agent, liver homogenates; set-up: species or system male Sprague-Dawley rats; settings: read-out: Ki (nM) ± SD S2R
T2 construct: from tissue; host or cells: rat liver homogenate (male Sprague-Dawley)
T2 sequence (Q5U3Y7 1-176): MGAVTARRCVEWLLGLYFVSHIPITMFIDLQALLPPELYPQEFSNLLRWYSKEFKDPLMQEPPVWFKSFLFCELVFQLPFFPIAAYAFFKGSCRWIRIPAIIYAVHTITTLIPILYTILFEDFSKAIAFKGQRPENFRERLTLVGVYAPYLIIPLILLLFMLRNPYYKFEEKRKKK
Method: as §1

[2] = tested on: capsaicin-induced mechanical hypersensitivity in mice; assay: Capsaicin-induced secondary mechanical hypersensitivity (allodynia); assay type: in vivo, female CD1 mice
Method: We used capsaicin-induced secondary hypersensitivity (allodynia) as a pain model. It has been described that the increase in mechanical sensitivity in the area surrounding capsaicin injection (area of secondary allodynia) is due to central sensitization, which is a relevant process for chronic pain development and maintenance.[48]
Experiments were performed in female CD1 mice (Charles River, Barcelona, Spain) weighing 25–30 g. The mice were acclimated in our animal facilities for at least 1 week before testing and housed in a room under controlled environmental conditions: 12/12 h day/night cycle, air replacement every 20 min, and regulated temperature (22 ± 2 °C). The animals were fed a standard laboratory diet (Harlan Teklad Research Diet, Madison, Wisconsin) and tap water ad libitum until the beginning of the experiments. Testing was always performed from 9.00 to 15.00 h and randomly throughout the oestrous cycle. Animal care was made in accordance with institutional (Research Ethics Committee of the University of Granada, Spain), regional (Junta de Andalucía, Spain), and international standards (European Communities Council Directive 2010/63).
As selective S1R drugs, we used the S1R antagonist BD-1063 (1-[2-(3,4-dichlorophenyl)ethyl]-4-methylpiperazine dihydrochloride) and the S1R agonist PRE-084 (2-(4-morpholinethyl)-1-phenyl cyclohexane carboxylate hydrochloride) (both provided by Tocris Cookson, Bristol, U.K.).[57] The standard or experimental compounds were dissolved in 5% DMSO (Merck KGaA, Darmstadt, Germany) in physiological sterile saline (0.9% NaCl). They were prepared immediately before the start of the experiments and injected s.c. in a volume of 5 mL/kg into the interscapular area.
To test for the antiallodynic effects of BD-1063, 4b, 5b, or 8f, they were administered 30 min before the injection of capsaicin, used as the chemical algogen. To test the effects of PRE-084 or 4b on the antiallodynia induced by BD-1063, 8f, or 5b, the former were administered 5 min before the latter. When the effect of the association of several drugs was assessed, each injection was performed in different areas of the interscapular zone to avoid mixture of the drug solutions and any physicochemical interaction between them.
Capsaicin (Sigma-Aldrich Química S.A.) was dissolved in 1% DMSO in physiological sterile saline to a concentration of 0.05 μg/μL (i.e., 1 μg per mouse). Capsaicin solution was injected intraplantarly (i.pl.) into the right hind paw proximate to the heel, in a volume of 20 μL using a 1710 TLL Hamilton microsyringe (Teknokroma, Barcelona, Spain) with a 30^1/2-gauge needle. Control animals were injected with the same volume of the vehicle of capsaicin.
Animals were placed for 2 h in individual black-walled test compartments, which were situated on an elevated mesh-bottom platform with a 0.5-cm^2 grid to provide access to the ventral surface of the hind paws. Punctate mechanical stimulation was applied with a Dynamic Plantar Aesthesiometer (Ugo Basile, Varese, Italy) 15 min after capsaicin or saline administration (i.e., 45 min after the injection of the experimental drug). Briefly, a nonflexible filament (0.5 mm diameter) was electronically driven into the ventral side of the right hind paw (which was previously injected with capsaicin or vehicle) at least 5 mm away from the site of the injection toward the fingers. The intensity of the stimulation was fixed at 0.5 g force, as described previously.[49],[50] When a paw withdrawal response occurred, the stimulus was automatically terminated and the response latency was recorded. The filament was applied three times at intervals of 0.5 min, and the mean value of the three trials was considered the withdrawal latency time of the animal.

S1R [3] = target: T1, S1R; assay: S1R functional assay: S1R radioligand binding with or without phenytoin; set-up: incubating 200 μL of membrane preparation with 50 μL of 20 nM; from tissue; host or cells: membrane preparation
Method: In order to further asses the functional profile of compounds 4b, 5b, and 8f, the well-established phenytoin-based functional assay was carried out.[52] Previous studies have shown that phenytoin, a low-potent allosteric modulator for the S1R, differentially modulates the affinity of S1R ligands depending on their agonist versus antagonist functionality.
The functionality of compounds 4b, 5b, and 8f on S1R was determined using the same radiolabeled binding assay for the S1R in the presence of phenytoin. […] The final volume was 0.5 mL.

S1R [4] = target: T1, S1R; settings: statement in the introduction; cited from earlier work

For `c1ccc(CCCN2CCCC3CN(Cc4ccccc4)CC32)cc1` (stereo not drawn) [8f, 6-Benzyl-1-(3-phenylpropyl)octahydro-1H-pyrrolo[3,4-b]pyridine], the “KiS2R/KiS1R (preference for S1R over S2R)” value (S1R [1]; ratio of S2R Ki to S1R Ki) was 16.5, the Ki (S1R [1]; read-out: Ki (nM) ± SD S1R) was 10 ± 1.6 nM and the Ki (S2R) was 165 ± 36 nM. The “antiallodynic effect when associated with the S1R agonist PRE-084” value ([2]; PRE-084 32 mg/kg s.c. 5 min before, BD-1063 40 mg/kg, 8f and 5b 20 mg/kg s.c.) was “abolish the antiallodynic effect; also recorded: completely reversed their antiallodynic action”, the “S1R functional profile in vivo” value ([2]; concluded from the capsaicin model) was “S1R antagonistic in vivo effect” and the “antiallodynic effect, compound administered alone” value ([2]; s.c., 30 min before capsaicin 1 μg i.pl., paw withdrawal latency at 0.5 g force, 4b 5–20 mg/kg, PRE-084 32 mg/kg) was “mimicked the effect of the known S1R antagonist”. For the same molecule, the “dose reaching full reversal of mechanical hypersensitivity (maximum antiallodynic effect)” value ([2]; s.c., capsaicin 1 μg i.pl., mice) was 20 mg/kg, the “ratio Ki (nM) control/+ phenythoin” value (S1R [3]; >1 agonist, ≤1 antagonist) was 0.8 and the “S1R functional profile in vitro (phenytoin assay)” value (S1R [3]; concluded from Ki ratio control/with phenytoin) was “antagonists for the S1R”. It also gave a Ki (S1R [3]; with phenytoin (20 μL of 25 mM in 0.5 mL), 120 min at 37 °C, read-out: Ki (nM) + phenythoin) of 12 nM and a Ki (S1R [3]; without phenytoin, read-out: Ki (nM) control) of 9.6 nM.

For `CCCN1CCC(c2cccc(S(C)(=O)=O)c2)CC1` [Pridopidine], the “fold greater affinity for S1R than for D2” value (S1R [4]) is given as 100 fold.
